Measured values as given in US9938316B2, “Selective inhibitors of α2 isoform of Na,K-ATPase and use thereof for reduction of intra-ocular pressure and as cardiotonic agents” (priority 2013, dated 2018).
Like-named read-outs stand apart in the source and are kept apart here.

Columns and labels:
[1] = target: Na,K-ATPase α1β1 isoform complex (Homo sapiens, UniProt P05023); experiment: biochemical; conditions: α1β1
Description: (§1) Methods for transformation, culture of P. pastoris clones, protein expression of Na,K-ATPase human isoforms (α1β1, α2β1, α3β1), membrane preparation, solubilization of membranes in DDM, and purification on BD-Talon beads have been described in detail (6-9, 11, 25). In initial experiments the three purified isoform complexes (0.3-0.5 mg/ml) were eluted from the BD-Talon beads in a solution containing Imidazole 170 mM, NaCl 100 mM; Tricine.HCl 20 mM pH 7.4; C12E8, 0.1 mg/ml; SOPS 0.07 mg/ml cholesterol 0.01 mg/ml, glycerol 25%. In later experiments the isoforms complexes were reconstituted with purified FXYD1 on the BD-Talon beads together as described in detail in (10, 11) prior to elution of α1β1FXYD1, α2β1FXYD1 and α3β1FXYD1 complexes. The proteins were stored at −80° C. Protein concentration was determined with BCA (B9643 Sigma).
(§2) Inhibition of Na,K-ATPase activity of the detergent-soluble α1β1, α2β1, and α3β1 complexes by CG's was determined as described (6) using either the αβ or αβFXYD1 complexes. […] The K0.5K was estimated by varying K concentration in a medium containing a fixed total K+choline chloride of 60 mM, and constant NaCl of 140 mM. Curves were fitted to the Hill function v=Vmax*[S]^n/([S]^n+K^n), where S is the K concentration, n is the Hill coefficient and K^n is K0.5K. For comparison of different curves the ratio v/Vmax for each curve was calculated and replotted. In experiments to assess inhibition of Na,K-ATPase activity by cardiac glycosides of the present invention, the percent inhibition VCG/V0 was calculated and Ki values were obtained by fitting the data to the function VCG/V0=Ki/([CG]+Ki)+ c. Inhibition was estimated in 3-8 separate experiments and average Ki values ±SEM were calculated. Significance of differences between Kiα1 and Kiα2 was calculated by the unpaired Student's t-test (p values). […] P values <0.05 were considered significant.

[2] = system: Na,K-ATPase α2β1 isoform complex; experiment: biochemical; format: biochemical, human; conditions: Kiα1β1/Kiα2β1
Description: as §1, §2

[3] = target: Na,K-ATPase α2β1 isoform complex (Homo sapiens, UniProt P50993); experiment: biochemical; format: biochemical; conditions: α2β1
Description: as §1, §2

[4] = system: intra-ocular pressure (IOP) of rabbits; experiment: 4-aminopyridine (4AP)-induced ocular hypertension in rabbits; format: in vivo, New Zealand white rabbits
Description: Intra-ocular pressure in rabbits was measured using of a “Reichert Model 30™ Pneumatonometer” after anesthetizing the cornea with local anesthetic.
Since the IOP reflects a balance of the inflow and outflow of aqueous humour, reduction of the increased 4AP-induced inflow of aqueous humour by cardiac glycosides should prevent the increase in IOP. Thus, the standard experimental design to test effects of cardiac glycosides involved topical application of the compounds (1 drop in each eye) 30 minutes prior to application of 4AP and measurement of IOP every 30 minutes over five hours. […] Each experiment was done three times, but the figures depict a representative experiment using a different rabbit for each concentration of the cardiac glycoside.
DGlyN or DMe (0.1 or 1 mM) were applied one hour after the first application of 4AP, which was added every two hours.
New Zealand white rabbits (3-3.5 kg) about 1 year old, of either sex, were housed individually in separate cages in animal room conditions on a reversed, 12-hour dark/light cycle. For the experiments the animals were transferred to rabbit restrainers in a quiet and calm atmosphere (FIG. 1). […] Animal care and treatment were subject to the approval of the institutional committee for animal experiments, Weizmann Institute IACUC permission (no 04270911-2).
IOP (mm Hg) of rabbits was measured using a calibrated Pneumatonometer (Model 30, Reichert technologies, FIG. 1). A local anesthetic Oxybuprocaine HCl (0.4%, 25 μl) was applied to each cornea about a minute before IOP measurements. Two baseline IOP readings were taken before topical administration of the CG (or PBS as control) and after half an hour (Zero time). […] At zero time one drop of 4AP (40 mg/ml, 30 μl) or IB-MECA (1 μM, 30 μl) was administered to both eyes of each rabbit IOP measurements were made at different times as indicated in each experiment. In the experiments for which the IOP was elevated for several hours, 4AP was added every […] or IB-MECA every 2 hours. […] In all cases the figures depict the average effect on IOP (i.e for four or six eyes) compared to control ±SEM. […] Significance of differences from the control was calculated by the unpaired Students t-test (p values), p values <0.05 were considered significant. Corneal thickness (μm) was measured using an ultrasonic pachymeter (Sonogage pachometer, Cleveland, USA), before and during the experiment with CG and 4AP treatments. The values represent averages of three independent measurements for each eye.

cornea of rabbits = experiment: Pachymetry: corneal thickness and local toxicity after topical cardiac glycosides; format: in vivo, New Zealand white rabbits; conditions: for Corneal thickness: 1 mM
Description: Thus, in this study, no change in corneal thickness was detected (Table 3), indicative of lack of local toxic effects. […] Similar results were obtained with CG's applied after IB-MECA.
IOP (mm Hg) of rabbits was measured using a calibrated Pneumatonometer (Model 30, Reichert technologies, FIG. 1). A local anesthetic Oxybuprocaine HCl (0.4%, 25 μl) was applied to each cornea about a minute before IOP measurements. Two baseline IOP readings were taken before topical administration of the CG (or PBS as control) and after half an hour (Zero time). […] At zero time one drop of 4AP (40 mg/ml, 30 μl) or IB-MECA (1 μM, 30 μl) was administered to both eyes of each rabbit IOP measurements were made at different times as indicated in each experiment. In the experiments for which the IOP was elevated for several hours, 4AP was added every 1.5 hours or IB-MECA every 2 hours. […] Each experiment was repeated two or three times with similar results. In all cases the figures depict the average effect on IOP (i.e for four or six eyes) compared to control ±SEM. Where error bars are not seen in the figures, the errors are smaller than the symbols used. Significance of differences from the control was calculated by the unpaired Students t-test (p values), p values <0.05 were considered significant. Corneal thickness (μm) was measured using an ultrasonic pachymeter (Sonogage pachometer, Cleveland, USA), before and during the experiment with CG and 4AP treatments. The values represent averages of three independent measurements for each eye.

| SMILES | Ki ([1]; Ki ± S.E. α1, Table 2) [nM] | Selectivity ratio Ki α1/α2 ± S.E. [2] | Ki ([3]; Ki ± S.E. α2, Table 2) [nM] | also measured |
| --- | --- | --- | --- | --- |
| CC1CN(C(C)C(N)=O)CCC(OC2C(O)CC(OC3C(O)CC(OC4CCC5(C)C(CCC6C5CC(O)C5(C)C(C7=CC(=O)OC7)CCC65O)C4)OC3C)OC2C)O1 (stereo not drawn) [DAlaN] | 232 ± 28 | 3.46 ± 0.59 | 67 ± 8.1 |  |
| C[C@]12CC[C@H](O)C[C@H]1CC[C@@H]1[C@@H]2C[C@@H](O)[C@]2(C)[C@@H](C3=CC(=O)OC3)CC[C@]12O [Digoxigenin, digoxigenin, reference compound] | 139 ± 17 |  | 130 ± 13.5 | Time IOP is maintained at the low level ([4]; 1 mM, single drop, 4AP every two hours): about 2 hours |
| CC1CN(CC(=O)O)CCC(OC2C(O)CC(OC3CCC4(C)C(CCC5C4CC(O)C4(C)C(C6=CC(=O)OC6)CCC54O)C3)OC2C)O1 (stereo not drawn) [DbisGly] | 80 ± 5.5 | 2.29 ± 0.80 | 34.9 ± 12 |  |
| CC1CN(NC(N)=O)CCC(OC2C(O)CC(OC3C(O)CC(OC4CCC5(C)C(CCC6C5CC(O)C5(C)C(C7=CC(=O)OC7)CCC65O)C4)OC3C)OC2C)O1 (stereo not drawn) [DSCar] | 102 ± 23 | 4.98±1.2 | 20 ± 3.6 |  |
| CC1CN(CCN)CCC(OC2C(O)CC(OC3C(O)CC(OC4CCC5(C)C(CCC6C5CC(O)C5(C)C(C7=CC(=O)OC7)CCC65O)C4)OC3C)OC2C)O1 (stereo not drawn) [DEtDA] | 69 ± 10 | 4.10 ± 0.82 | 16.7 ± 2.1 |  |
| C[C@H]1O[C@@H](O[C@H]2[C@@H](O)C[C@H](O[C@H]3CC[C@@]4(C)[C@H](CC[C@@H]5[C@@H]4C[C@@H](O)[C@]4(C)[C@@H](C6=CC(=O)OC6)CC[C@]54O)C3)O[C@@H]2C)C[C@H](O)[C@@H]1O [Dbis, digoxigenin bis digitoxide, reference compound] |  | 2.65 ± 0.81 |  | Ki ([1]; Table 2, read-out: Ki ± S.E. α1): 196 ± 8.5 nM; Ki ([3]; Table 2, read-out: Ki ± S.E. α2): 74 ± 5 nM |
| C[C@@H]1O[C@@H](O[C@H]2C[C@@H](O)[C@]3(CO)[C@H]4[C@H](O)C[C@]5(C)[C@@H](C6=CC(=O)OC6)CC[C@]5(O)[C@@H]4CC[C@]3(O)C2)[C@H](O)[C@H](O)[C@H]1O [Ouabain, ouabain, reference compound] |  |  |  | Effect on 4AP-induced rise in IOP ([4]; 1 mM, 1 drop topically 30 minutes prior to 4AP): somewhat reduced IOP; Effect on 4AP-induced rise in IOP ([4]; concentrations lower than 1 mM, topically 30 minutes prior to 4AP): poorly effective; Wash-out time/rate compared with other cardiac glycosides ([4]; equal concentrations, 4AP every two hours): washed out at a rate between that of digoxin and digoxigenin; Corneal thickness (cornea of rabbits; left eye, 0 h): 455 microns; Corneal thickness (cornea of rabbits; left eye, 2 h): 409 microns; Corneal thickness (cornea of rabbits; left eye, 4 h): 422 microns; Corneal thickness (cornea of rabbits; right eye, 0 h): 461 microns; Corneal thickness (cornea of rabbits; right eye, 2 h): 405 microns; Corneal thickness (cornea of rabbits; right eye, 4 h): 414 microns; Corneal thickness (in words) (cornea of rabbits; over 4 hours, after 4AP, Digoxin 1 mM, DGlyN 0.5 mM, DMe 0.5 mM, ouabain 1 mM): not significantly affected; Redness or local irritation in conjunctiva or cornea (cornea of rabbits; topical, after 4AP): neither redness nor local irritation were observed |
| CC1CN(C(CO)C(=O)O)CCC(OC2C(O)CC(OC3C(O)CC(OC4CCC5(C)C(CCC6C5CC(O)C5(C)C(C7=CC(=O)OC7)CCC65O)C4)OC3C)OC2C)O1 (stereo not drawn) [DSer] | 316 ± 109 | 2.18 ± 0.86 | 145 ± 28.5 |  |
| CC1CN(O)CCC(OC2C(O)CC(OC3C(O)CC(OC4CCC5(C)C(CCC6C5CC(O)C5(C)C(C7=CC(=O)OC7)CCC65O)C4)OC3C)OC2C)O1 (stereo not drawn) [DOH] | 311 ± 18.5 | 2.32 ± 0.62 | 134 ± 35 |  |
| CC1CN(C(CO)C(N)=O)CCC(OC2C(O)CC(OC3C(O)CC(OC4CCC5(C)C(CCC6C5CC(O)C5(C)C(C7=CC(=O)OC7)CCC65O)C4)OC3C)OC2C)O1 (stereo not drawn) [DSerN] | 242 ± 15 | 1.68 ± 0.13 | 144 ± 3.5 |  |
| COC(=O)CN1CCC(OC2C(O)CC(OC3C(O)CC(OC4CCC5(C)C(CCC6C5CC(O)C5(C)C(C7=CC(=O)OC7)CCC65O)C4)OC3C)OC2C)OC(C)C1 (stereo not drawn) [DGlMe] | 540 ± 102 | 4.22 ± 0.88 | 128 ± 11 |  |
| CC1CN(CCC(N)=O)CCC(OC2C(O)CC(OC3C(O)CC(OC4CCC5(C)C(CCC6C5CC(O)C5(C)C(C7=CC(=O)OC7)CCC65O)C4)OC3C)OC2C)O1 (stereo not drawn) [DPrN] | 249 ± 37 | 5.28±0.75 | 47 ± 7.8 |  |
| Nc1ccncc1 [4AP, 4-aminopyridine, reference compound] |  |  |  | Rise of IOP ([4]; one or two drops (40 mg/ml) in each eye): 3-6 mm Hg |
| CC1CN(CC(=O)O)CCC(OC2C(O)CC(OC3C(O)CC(OC4CCC5(C)C(CCC6C5CC(O)C5(C)C(C7=CC(=O)OC7)CCC65O)C4)OC3C)OC2C)O1 (stereo not drawn) [DGly] | 124 ± 8.6 | 5.1±0.54 | 25 ± 3.9 |  |
